Laboratory results published in patent publication US20260041089A1, “PLANT BIOSTIMULANT AND METHODS OF MAKING AND USING SAME” (Solugen, Inc., priority 2022, published 2026).
Several values for one entry are separate records, joined by “and”; a condition that tells them apart may be missing. Identical values can stand only once.

System: microgreens
Assay: Radish microgreens growth under controlled pH 5, 1% solutions (Example 2)
Type: in vivo
Conditions: for germination rate / root hair development: Day 2; for Plant dry weight: harvest Day 8, dried 3 days
Procedure: The biostimulant effect of a PBC under controlled pH and composition conditions was investigated. Particularly, a second batch of testing was performed to verify that biostimulant effect observed in Example 1 was not an artifact of differing pH or composition. In this set, samples having a controlled yet differing compositions were compared. The first sample set comprised the sugar sucrose while the second sample comprised citric acid. Citric acid was reported to promote seed germination, all under the same pH. Therefore, solutions of 1% citric acid, sucrose, and a PBC were prepared and adjusted to a pH of 5. Two pots were filled with 150 g of each solution. About 200 seeds were placed on top of each soaked growing mats. This second batch was left indoors at room temperature for 8 days.
Microgreens were harvested on Day 8. They were then dried for 3 days, and the dry weights were recorded.

[1] = 1% solution, pH 5, harvest Day 8

SMILES: O=C(O)CC(O)(CC(=O)O)C(=O)O [Citric Acid, citric acid]
- germination rate (1% solution, pH 5): 100%
- Length of Root [1]: 0.82 ± 0.25 cm and 0.71 ± 0.22 cm
- Plant dry weight (1% solution, pH 5): 1.99 g and 1.81 g
- overall growth at harvest (Table 2 summary) (1 wt. %, Day 8): least overall growth in every parameter considered
- root hair development: minimal root hair development
- growth observation (Day 4): stunted growth with no stem or root hair development
- growth observation (Day 7): no stem development and poor overall growth

SMILES: OC[C@H]1O[C@@](CO)(O[C@H]2O[C@H](CO)[C@@H](O)[C@H](O)[C@H]2O)[C@@H](O)[C@@H]1O [Sucrose, sucrose]
- germination rate (1% solution, pH 5): 99%
- Length of Root [1]: 2.61 ± 0.43 cm and 2.49 ± 1.0 cm
- Length of Stem [1]: 3.86 ± 1.10 cm and 4.27 ± 1.03 cm
- Plant dry weight (1% solution, pH 5): 3.0 g and 2.29 g
- root hair development: most root hair development
- leaf development (Day 3): most leaf development
- growth observation (Day 7): healthy leaf growth
